23 molecules from patent US11807644B2 (PMV Pharmaceuticals, Inc., priority 2020, dated 2023) can be followed below.

This experiment deals with T1, recombinant His-tag Y220C p53 DBD protein (Homo sapiens, UniProt P04637, Y220C).
T1 construct: recombinant His-tag Y220C p53 DBD protein (amino acids #˜94-312)
Nature of the experiment: In vitro DNA binding activity assay (TR-FRET): binding of His-tag Y220C p53 DBD to biotin-labeled consensus DNA. Type of experiment: biochemical. Conditions: for Y220C SC150 (μM): SC150 = concentration to increase DNA binding by […], His-tag Y220C p53 DBD, biotin-labeled consensus DNA.

For `CCN1CC[C@@H](Nc2cccc3c2cc(-c2noc(CNC(=O)c4cnn(C5CCOCC5)c4)n2)n3CC(F)(F)F)[C@@H](F)C1` [Compound 334B, N-{[3-(4-{[(3S,4R)-1-ethyl-3-fluoropiperidin-4-yl]amino)-1-(2,2,2-trifluoroethyl)-1H-indol-2-yl)-1,2,4-oxadiazol-5-yl]methyl}-1-(oxan-4-yl)-1H-pyrazole-4-carboxamide], the “Y220C SC150 (μM)” value is “* (* = 0 μM ≤ SC150 < 0.1 μM)”. For the molecule `C[C@H]1CN(C)CC[C@H]1Nc1cccc2c1cc(-c1noc(CNC(=O)c3cnn(C(C)(C)C)c3)n1)n2CC(F)(F)F` [Compound 510B, 1-tert-butyl-N-{[3-(4-{[(3S,4R)-1,3-dimethylpiperidin-4-yl]amino}-1-(2,2,2-trifluoroethyl)-1H-indol-2-yl)-1,2,4-oxadiazol-5-yl]methyl}-1H-pyrazole-4-carboxamide], the “Y220C SC150 (μM)” value is “* (* = 0 μM ≤ SC150 < 0.1 μM)”.

As to `COC1CCC(n2ccc(C(=O)NCc3nc(-c4cc5c(N[C@@H]6CCN(C)C[C@@H]6F)cccc5n4CC(F)(F)F)no3)c2)C1` (stereo in doubt) [Compound 360B, N-{[3-(4-{[(3S,4R)-3-fluoro-1-methylpiperidin-4-yl]amino}-1-(2,2,2-trifluoroethyl)-1H-indol-2-yl)-1,2,4-oxadiazol-5-yl]methyl}-1-[(1R,3R)-3-methoxycyclopentyl]-1H-pyrrole-3-carboxamide], the “Y220C SC150 (μM)” value was “* (* = 0 μM ≤ SC150 < 0.1 μM)”. Turning to `CN1CC[C@@H](Nc2cccc3c2cc(-c2noc(CNC(=O)[C@@H]4C[C@H]4c4cccc(F)c4)n2)n3CC(F)(F)F)[C@@H](F)C1` [Compound 235B, (1R,2R)-N-{[3-(4-{[(3S,4R)-3-fluoro-1-methylpiperidin-4-yl]amino}-1-(2,2,2-trifluoroethyl)-1H-indol-2-yl)-1,2,4-oxadiazol-5-yl]methyl}-2-(3-fluorophenyl)cyclopropane-1-carboxamide], the “Y220C SC150 (μM)” value was “* (* = 0 μM ≤ SC150 < 0.1 μM)”. Same read-out and setting: then `CC1CN(c2nc(C(=O)NCc3nc(-c4cc5c(N[C@@H]6CCN(C)C[C@@H]6F)cccc5n4CC(F)(F)F)no3)cs2)C[C@H](C)O1` (stereo in doubt) [Compound 517B, 2-[(2S,6S)-2,6-dimethylmorpholin-4-yl]-N-{[3-(4-{[(3S,4R)-3-fluoro-1-methylpiperidin-4-yl]amino}-1-(2,2,2-trifluoroethyl)-1H-indol-2-yl)-1,2,4-oxadiazol-5-yl]methyl}-1,3-thiazole-4-carboxamide], with “* (* = 0 μM ≤ SC150 < 0.1 μM)”; and `COCCn1cc(C(=O)NCc2nc(-c3cc4c(N[C@@H]5CCN(C)C[C@@H]5F)cccc4n3CC(F)(F)F)no2)cn1` [Compound 290B, N-{[3-(4-{[(3S,4R)-3-fluoro-1-methylpiperidin-4-yl]amino}-1-(2,2,2-trifluoroethyl)-1H-indol-2-yl)-1,2,4-oxadiazol-5-yl]methyl}-1-(2-methoxyethyl)-1H-pyrazole-4-carboxamide], with “* (* = 0 μM ≤ SC150 < 0.1 μM)”. On the same count and under the same terms, the same measure for `CN1CC[C@@H](Nc2cccc3c2cc(-c2ncc(CNC(=O)c4ccccc4)s2)n3CC(F)(F)F)[C@@H](F)C1` (racemic) [Compound 91B, (+/−)-N-{[2-(4-{[(3R,4S)-3-fluoro-1-methylpiperidin-4-yl]amino}-1-(2,2,2-trifluoroethyl)-1H-indol-2-yl)-1,3-thiazol-5-yl]methyl}benzamide]: “* (* = 0 μM ≤ SC150 < 0.1 μM)”. Same read-out and setting: then `CN1CC[C@@H](Nc2cccc3c2cc(-c2noc(CNC(=O)c4cncn4CCF)n2)n3CC(F)(F)F)[C@@H](F)C1` [Compound 556B, N-{[3-(4-{[(3S,4R)-3-fluoro-1-methylpiperidin-4-yl]amino}-1-(2,2,2-trifluoroethyl)-1H-indol-2-yl)-1,2,4-oxadiazol-5-yl]methyl}-1-(2-fluoroethyl)-1H-imidazole-5-carboxamide], with “* (* = 0 μM ≤ SC150 < 0.1 μM)”. As for `COc1ccc(C(=O)NCc2nnc(-c3cc4c(NC5CCN(C)CC5)cccc4n3CC(F)(F)F)s2)cc1` [Compound 63B, 4-methoxy-N-[(5-{4-[(1-methylpiperidin-4-yl)amino]-1-(2,2,2-trifluoroethyl)-1H-indol-2-yl}-1,3,4-thiadiazol-2-yl)methyl]benzamide], the “Y220C SC150 (μM)” value is “* (* = 0 μM ≤ SC150 < 0.1 μM)”. Same read-out and setting: then `CN1CCC(Nc2cccc3c2cc(-c2nnc(CNC(=O)C4(C)CC4)s2)n3CC(F)(F)F)CC1` [Compound 71B, 1-methyl-N-[(5-{4-[(1-methylpiperidin-4-yl)amino]-1-(2,2,2-trifluoroethyl)-1H-indol-2-yl}-1,3,4-thiadiazol-2-yl)methyl]cyclopropane-1-carboxamide], with “** (** = 0.1 μM ≤ SC150 < 0.5 μM)”; and `O=C(NCc1nc(-c2cc3c(NCC4CCC4)cccc3n2CC(F)(F)F)no1)C1CC1` [Compound 166B, N-[(3-{4-[(cyclobutylmethyl)amino]-1-(2,2,2-trifluoroethyl)-1H-indol-2-yl}-1,2,4-oxadiazol-5-yl)methyl]cyclopropanecarboxamide], with “** (** = 0.1 μM ≤ SC150 < 0.5 μM)”. The same measure, in the same setting: the same measure for `CN1CCC(Nc2cccc3c2cc(-c2cc(N)[nH]n2)n3CC(F)(F)F)CC1` [Compound 21B, 2-(5-amino-1H-pyrazol-3-yl)-N-(1-methylpiperidin-4-yl)-1-(2,2,2-trifluoroethyl)-1H-indol-4-amine]: “**** (**** = 1 μM ≤ SC150 < 10 μM)”; for `CN1CC[C@@H](Nc2cccc3c2cc(-c2noc(CNC(=O)c4cncn4-c4ccccc4)n2)n3CC(F)(F)F)[C@@H](F)C1` [Compound 309B, N-{[3-(4-{[(3S,4R)-3-fluoro-1-methylpiperidin-4-yl]amino)-1-(2,2,2-trifluoroethyl)-1H-indol-2-yl)-1,2,4-oxadiazol-5-yl]methyl}-1-phenyl-1H-imidazole-5-carboxamide]: “* (* = 0 μM ≤ SC150 < 0.1 μM)”; for `COC1CCCC1n1ccc(C(=O)NCc2nc(-c3cc4c(N[C@@H]5CCN(C)C[C@@H]5F)cccc4n3CC(F)(F)F)no2)c1` (stereo in doubt) [Compound 364B, N-{[3-(4-{[(3S,4R)-3-fluoro-1-methylpiperidin-4-yl]amino}-1-(2,2,2-trifluoroethyl)-1H-indol-2-yl)-1,2,4-oxadiazol-5-yl]methyl}-1-[(1R,2S)-2-methoxycyclopentyl]-1H-pyrrole-3-carboxamide]: “* (* = 0 μM ≤ SC150 < 0.1 μM)”. On the same count and under the same terms, then `CN1CC[C@@H](Nc2cccc3c2cc(-c2noc(CNC(=O)c4cc5ccccn5c4)n2)n3CC(F)(F)F)[C@@H](F)C1` [Compound 196B, N-{[3-(4-{[(3S,4R)-3-fluoro-1-methylpiperidin-4-yl]amino}-1-(2,2,2-trifluoroethyl)-1H-indol-2-yl)-1,2,4-oxadiazol-5-yl]methyl}indolizine-2-carboxamide], with “* (* = 0 μM ≤ SC150 < 0.1 μM)”; and `CN1CC[C@@H](Nc2cccc3c2cc(-c2noc(CNC(=O)c4ccc(C(C)(C)C)nc4)n2)n3CC(F)(F)F)[C@@H](F)C1` [Compound 501B, 6-tert-butyl-N-{[3-(4-{[(3S,4R)-3-fluoro-1-methylpiperidin-4-yl]amino}-1-(2,2,2-trifluoroethyl)-1H-indol-2-yl)-1,2,4-oxadiazol-5-yl]methyl}pyridine-3-carboxamide], with “* (* = 0 μM ≤ SC150 < 0.1 μM)”. `CN1CC[C@@H](Nc2cccc3c2cc(-c2nnc(CNC(=O)C4CCC4)s2)n3CC(F)(F)F)[C@@H](F)C1` (racemic) [Compound 37B, (+/−)-N-{[5-(4-{[(3R,4S)-3-fluoro-1-methylpiperidin-4-yl]amino}-1-(2,2,2-trifluoroethyl)-1H-indol-2-yl)-1,3,4-thiadiazol-2-yl]methyl}cyclobutanecarboxamide]: the “Y220C SC150 (μM)” value is “** (** = 0.1 μM ≤ SC150 < 0.5 μM)”. `O=S1(=O)CCC(Nc2cccc3c2cc(-c2ccc(CN4CCOCC4)cc2)n3CC(F)(F)F)CC1` [Compound 24A, 4-[(2-{4-[(morpholin-4-yl)methyl]phenyl}-1-(2,2,2-trifluoroethyl)-1H-indol-4-yl)amino]-1λ^6-thiane-1,1-dione]: the “SC150 (μM)” value (concentration to increase DNA binding by […], incubated at either 27° C. or 29° C. for 60 min) is reported as “+++ (+++ = 5 μM ≤ SC150 < 10 μM)”.

Turning to `CC(C)c1cc(C(=O)NCc2nc(-c3cc4c(N[C@@H]5CCN(C)C[C@@H]5F)cccc4n3CC(F)(F)F)no2)co1` [Compound 526B, N-{[3-(4-{[(3S,4R)-3-fluoro-1-methylpiperidin-4-yl]amino}-1-(2,2,2-trifluoroethyl)-1H-indol-2-yl)-1,2,4-oxadiazol-5-yl]methyl}-5-(propan-2-yl)furan-3-carboxamide], the “Y220C SC150 (μM)” value was “* (* = 0 μM ≤ SC150 < 0.1 μM)”.

Turning to `CN1CC[C@@H](Nc2cccc3c2cc(-c2nnc(CNC(=O)c4ccn(C(C)(C)C)c4)s2)n3CC(F)(F)F)[C@@H](F)C1` [Compound 286B, 1-tert-butyl-N-{[5-(4-{[(3S,4R)-3-fluoro-1-methylpiperidin-4-yl]amino}-1-(2,2,2-trifluoroethyl)-1H-indol-2-yl)-1,3,4-thiadiazol-2-yl]methyl}-1H-pyrrole-3-carboxamide], the “Y220C SC150 (μM)” value is recorded as “* (* = 0 μM ≤ SC150 < 0.1 μM)”. The same measure, in the same setting: the same measure for `CN1CC[C@@H](Nc2cccc3c2cc(-c2noc(CNC(=O)c4cnn(C5(C)CCOCC5)c4)n2)n3CC(F)(F)F)[C@@H](F)C1` [Compound 404B, N-{[3-(4-{[(3S,4R)-3-fluoro-1-methylpiperidin-4-yl]amino}-1-(2,2,2-trifluoroethyl)-1H-indol-2-yl)-1,2,4-oxadiazol-5-yl]methyl}-1-(4-methyloxan-4-yl)-1H-pyrazole-4-carboxamide]: “* (* = 0 μM ≤ SC150 < 0.1 μM)”; for `COCC1(n2ccc(C(=O)NCc3nc(-c4cc5c(N[C@@H]6CCN(C)C[C@@H]6F)cccc5n4CC(F)(F)F)no3)c2)CCC1` [Compound 471B]: “* (* = 0 μM ≤ SC150 < 0.1 μM)”.

As for `CC(=O)N1CCC(Nc2cccc3c2cc(-c2noc(CNC(=O)C4CC4)n2)n3CC(F)(F)F)CC1` [Compound 161B, N-[(3-{4-[(1-acetylpiperidin-4-yl)amino]-1-(2,2,2-trifluoroethyl)-1H-indol-2-yl}-1,2,4-oxadiazol-5-yl)methyl]cyclopropanecarboxamide], the “Y220C SC150 (μM)” value was “* (* = 0 μM ≤ SC150 < 0.1 μM)”.
